The structures appear in SMILES notation. Values joined by “and” are separate entries in the source; they are usually repeats but may differ in a detail not shown here. Identical values can stand only once.

The experiment deals with T1, CCR1 (Homo sapiens, UniProt P32246).
T1 construct: host or cells: non-adherent cells
T1 sequence (P32246 1-355): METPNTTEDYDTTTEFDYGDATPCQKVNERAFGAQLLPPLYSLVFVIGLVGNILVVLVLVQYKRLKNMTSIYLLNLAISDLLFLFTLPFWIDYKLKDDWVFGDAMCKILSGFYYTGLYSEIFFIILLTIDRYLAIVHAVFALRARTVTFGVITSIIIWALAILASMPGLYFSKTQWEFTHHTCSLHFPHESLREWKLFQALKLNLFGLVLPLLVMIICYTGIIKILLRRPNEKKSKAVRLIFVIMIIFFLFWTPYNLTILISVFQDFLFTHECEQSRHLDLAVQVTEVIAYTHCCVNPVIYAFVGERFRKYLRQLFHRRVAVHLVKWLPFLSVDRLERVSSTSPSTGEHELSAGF
As to the kind of experiment: functional cellular assay measuring calcium flux in response to MIP1α in CCR1-transfected cells (Method A or Method B). The experiment is classed as cell-based. Particulars: cells stably expressing recombinant CCR1 and G-alpha-16; MIP-1alpha added at EC80; method (A: FLIPR TETRA, B: FDSS6000) not stated per compound. As to the method:
Compounds are assessed for the ability to block the interaction of CCR1 and its ligands in a functional cellular assay measuring calcium flux in response to MIP1α in CCR1-transfected cells.
Method A: Non-adherent cells purchased from Chemicon Corporation (HTS005C), stably expressing recombinant CCR1 and G-alpha-16 are grown in RPMI 1640 medium (Mediatech 10-080-CM) supplemented with 10% heat-inactivated FBS, 0.4 mg/mL Geneticin and penicillin/streptomycin. On the day of the assay, the cells are transferred to a beaker and dye-loaded in bulk using a Fluo-4 NW Calcium Assay Kit with probenecid (Invitrogen F36205) at 0.8E6 cells/mL for 1 hour at room temperature. After 1 hour, they are seeded in a 384-well tissue culture-treated plate at a density of 20,000 cells/well. Appropriately diluted test compound is added to the well to achieve a top concentration of 3,000 nM (diluted 3-fold with 10 doses total). The final concentration of DMSO is 1%. The buffer is HBSS (Invitrogen 14025) with 20 mM HEPES at pH 7.4. The cells are allowed to incubate 1 hour in the dark at room temperature. The plates are transferred to the FLIPR TETRA where MIP-1alpha in 1% BSA is added at the EC80 final concentration. Wells +/−MIP-1alpha containing diluted DMSO instead of compound serve as the controls. Intracellular calcium flux is recorded on the FLIPR TETRA, using excitation at 470/495 nm and emission at 515/575 nm. Data are analyzed using Activity Base software.
Method B: Non-adherent cells purchased from Chemicon Corporation (HTS005C), stably expressing recombinant CCR1 and G-alpha-16 are grown in RPMI 1640 medium (Mediatech 10-080-CM) supplemented with 10% FBS, 0.4 mg/mL Geneticin and penicillin/streptomycin. On the day of the assay, the cells are loaded with Calcium 4 dye (Molecular Devices R7448) with Probenecid (Invitrogen P346400) at 8E5 cells/mL for 1 hour at room temperature. After 1 hour, they are seeded in a 384-well tissue culture-treated plate at a density of 20,000 cells/well. Appropriately diluted test compound is added to the well to achieve a top concentration of 3,000 nM (diluted 4-fold with 10 doses total). The final concentration of DMSO is 1%. The buffer is HBSS (Invitrogen 14025) with 20 mM HEPES at pH 7.4. The cells incubate 30 minutes at 37 C and then 30 minutes at room temperature. The plates are transferred to the HAMAMATSU FDSS6000 where MIP-1alpha in 1% BSA is added at the EC80 final concentration. All plates must be read within 4 hours of the start of dye-loading. Wells +/−MIP-1alpha containing diluted DMSO instead of compound serve as the controls. Data are analyzed using Activity Base software.
For the compound `CCCC(NC(=O)c1cnn(-c2ccc(Cl)cc2)c1C)c1cncc(S(=O)(=O)N(C)C)c1` (centres unmarked) [1-(4-Chloro-phenyl)-5-methyl-1H-pyrazole-4-carboxylic acid [1-(5-dimethylsulfamoyl-pyridin-3-yl)-butyl]-amide], the IC50 came out at 4.9 nM.

As for `CCCC(NC(=O)c1cnn(-c2ccc(Cl)cc2)c1C)c1cncc(S(=O)(=O)CC)c1` (centres unmarked) [1-(4-Chloro-phenyl)-5-methyl-1H-pyrazole-4-carboxylic acid [1-(5-ethanesulfonyl-pyridin-3-yl)-butyl]-amide], the IC50 came to 94 nM.

Turning to `CCCC(NC(=O)c1cnn(-c2ccc(Cl)cc2)c1C)c1cncc(S(C)(=O)=O)c1` (centres unmarked) [1-(4-Chloro-phenyl)-5-methyl-1H-pyrazole-4-carboxylic acid [1-(5-methanesulfonyl-pyridin-3-yl)-butyl]-amide], the IC50 was found to be 15 nM.

In the case of `CCCC(NC(=O)c1cnn(-c2ccc(Cl)cc2)c1C)c1cncc(S(=O)(=O)NC)c1` (centres unmarked) [1-(4-Chloro-phenyl)-5-methyl-1H-pyrazole-4-carboxylic acid [1-(5-methylsulfamoyl-pyridin-3-yl)-butyl]-amide], the IC50 is 4.1 nM.

In the case of `CCCC(NC(=O)c1cnn(-c2ccc(Cl)cc2)c1C)c1cncc(S(N)(=O)=O)c1` (centres unmarked) [1-(4-Chloro-phenyl)-5-methyl-1H-pyrazole-4-carboxylic acid [1-(5-sulfamoyl-pyridin-3-yl)-butyl]-amide], the IC50 was 31 nM and 35 nM.

`CCCC(NC(=O)c1cnn(-c2ccc(Cl)cc2)c1C)c1ccc(S(=O)(=O)C2CC2)nc1` (centres unmarked) [1-(4-Chloro-phenyl)-5-methyl-1H-pyrazole-4-carboxylic acid [1-(6-cyclopropanesulfonyl-pyridin-3-yl)-butyl]-amide]: the IC50 amounted to 53 nM.

On to `CCCC(NC(=O)c1cnn(-c2ccc(Cl)cc2)c1C)c1ccc(S(=O)(=O)N(C)C)nc1` (centres unmarked) [1-(4-Chloro-phenyl)-5-methyl-1H-pyrazole-4-carboxylic acid [1-(6-dimethylsulfamoyl-pyridin-3-yl)-butyl]-amide], for which the IC50 worked out at 12 nM.

Take `CCCC(NC(=O)c1cnn(-c2ccc(Cl)cc2)c1C)c1ccc(S(=O)(=O)CC)nc1` (centres unmarked) [1-(4-Chloro-phenyl)-5-methyl-1H-pyrazole-4-carboxylic acid [1-(6-ethanesulfonyl-pyridin-3-yl)-butyl]-amide]: the IC50 worked out at 60 nM.

Regarding `CCCC(NC(=O)c1cnn(-c2ccc(Cl)cc2)c1C)c1ccc(S(=O)(=O)NC)nc1` (centres unmarked) [1-(4-Chloro-phenyl)-5-methyl-1H-pyrazole-4-carboxylic acid [1-(6-methylsulfamoyl-pyridin-3-yl)-butyl]-amide], the IC50 was determined as 6.3 nM.

With `CC[C@H](NC(=O)c1cnn(-c2ccc(Cl)cc2)c1C)c1ccnc(S(C)(=O)=O)c1` [1-(4-Chloro-phenyl)-5-methyl-1H-pyrazole-4-carboxylic acid [(S)-1-(2-methanesulfonyl-pyridin-4-yl)-propyl]-amide], the IC50 is 29 nM.

Consider `CC[C@H](NC(=O)c1cnn(-c2ccc(Cl)cc2)c1C)c1cnc(S(C)(=O)=O)s1` [1-(4-Chloro-phenyl)-5-methyl-1H-pyrazole-4-carboxylic acid [(S)-1-(2-methanesulfonyl-thiazol-5-yl)-propyl]-amide], for which the IC50 came out at 57 nM.

For the compound `CC[C@H](NC(=O)c1cnn(-c2ccc(Cl)cc2)c1C)c1ccnc(S(=O)(=O)NC)c1` [1-(4-Chloro-phenyl)-5-methyl-1H-pyrazole-4-carboxylic acid [(S)-1-(2-methylsulfamoyl-pyridin-4-yl)-propyl]-amide], the IC50 was 19 nM.

Turning to `CCC[C@H](NC(=O)c1cnn(-c2ccc(Cl)cc2)c1C)c1cccc(Br)c1` [1-(4-Chloro-phenyl)-5-methyl-1H-pyrazole-4-carboxylic acid [(S)-1-(3-bromo-phenyl)-butyl]-amide], the IC50 worked out at 28 nM.

For the compound `C=CCCC[C@H](NC(=O)c1cnn(-c2ccc(Cl)cc2)c1C)c1cccc(C(F)(F)F)c1` [1-(4-Chloro-phenyl)-5-methyl-1H-pyrazole-4-carboxylic acid [(S)-1-(3-trifluoromethyl-phenyl)-hex-5-enyl]-amide], the IC50 was 30 nM.

(Values after patent US8293917B2, “Pyrazole compounds as CCR1 antagonists” (Boehringer Ingelheim International GmbH, priority 2008, dated 2012).)
